Measurements published in PMC7334220, “Diamond Blackfan anemia is mediated by hyperactive Nemo-like kinase” (Nature Communications, 2020).

Experiments:
[1] = system: ribosome-competent cord blood CD34+ HSPCs (shLuc); assay: In vitro differentiation of cord blood CD34+ HSPCs transduced with control shRNA (luciferase); assay type: cell-based, human
Method: Lin-Kit^+ fetal liver cells were obtained from mouse embryos expressing tet-on shRNA against RPS19, at day E14.5-15.5. Cells were plated at 2000 cell per well in 96-well plates in the presence or absence of doxycycline. Relative amounts of live cells were quantified by luciferase-based Cell titer-Glo® assay. b TGFβR1 inhibitors were assessed for their ability to increase cell expansion in RPS19-insuffiency. As a control, vehicle alone (no doxycycline) is represented at the far left while all other samples were treated with doxycycline to induce RPS19-insufficiency. c Kit^+ erythroid progenitors were grown in the absence of doxycycline and in the presence of 10 µM of indicated compound. In addition, cells were treated with 5 ng/ml of TGFβ1 for 5 days before being subjected to Cell titer-Glo® assay. d Differentiating cord blood CD34^+ progenitors were transduced with shRNA against luciferase or RPS19 and treated with inhibitors at working concentrations for TGFβ inhibition every three days. […] Cells were counted and CD235^+ erythroid (i and iii) and CD11b^+ myeloid cell (ii and iv) percentages were determined by flow cytometry. The number of erythroid or myeloid cells is expressed as a percentage of the number of that lineage with no cytokine or drug treatment. […]
Fig. 8 NLK inhibition increases expansion of erythroid progenitors from human and murine models of DBA. a Human cord blood CD34^+ progenitors were transduced with lentivirus co-expressing GFP with shRNA against luciferase (shLuc), RPS19 (shRPS19), or RPL11 (shRPL11). […] Cells were counted and assessed for cell surface expression of CD235. b Lin-Kit^+ hematopoietic progenitors were obtained from three mouse embryos expressing tetracycline-inducible shRNA against RPS19 at day E14.5 or three untreated mice, and thee mature RPL11^+/+ or three mature RPL11^+/lox mice treated with tamoxifen for eight weeks. […] Values were expressed as a percentage relative to untreated controls. c, d Intracellular phosphorylation of NLK at Thr298 was determined by capillary electrophoresis using the Peggy Sue™ Automated Western blotting platform. […]

p38 = assay: DiscoveRX kinase profile analysis of SD208, p38; assay type: biochemical; details: 10 µM; kinase profiling; Supplementary Fig. 2a

With Fc1ccc(Cl)cc1-c1nc(Nc2ccncc2)c2nccnc2n1 [SD208] the activity at 5 µM ([1]; Homo sapiens, 360 h, read-out: erythroid expansion of HSPCs transduced with control shRNA, % of control) was ~105%, the “restoration of erythroid and myeloid expansion of TGFβ-treated cells” value ([1]; ribosome-competent cells, 5 ng/ml TGFβ1, 5 µM compound, 15 days, Fig. 1e) was “restored” and the “inhibition of p38 kinase activity” value (p38) was 99.6%.
